From paper PMC8879496 (Pharmaceutics, 2022)
Read-outs that look alike come from different tables or passages of the source.

Experiments:
CYP2C9 = CYP2C9 (Homo sapiens, UniProt P11712); experiment: CYP450 enzyme inhibition, CYP2C9
influenza virus = conditions: read-out: IC50, anti-influenza virus activity; cited from earlier work
Plasma stability, rat = type: in vitro ADME; conditions: 37 °C
Procedure: (§1) Animal plasma (Innovative Research, Inc., Novi, MI, USA) and test compounds (5 μM) were incubated at 37 °C for 4 h. To prevent the reaction, cold acetonitrile was added.

MERS-CoV = experiment: microbe, parasite or virus in culture; type: cell-based; conditions: Middle East respiratory syndrome-related coronavirus, Vero, 24 h, read-out: IC50, MERS-CoV inhibition, Vero cells, 0.0625 MOI, 24 h post-infection, spike staining
SARS-CoV = experiment: microbe, parasite or virus in culture; type: cell-based; conditions: Severe acute respiratory syndrome coronavirus, Vero, 24 h, read-out: IC50, SARS-CoV inhibition
CYP3A4 = CYP3A4 (Homo sapiens, UniProt P08684); experiment: CYP450 enzyme inhibition, CYP3A4
Chain of CYP3A4 (P08684 whole entry): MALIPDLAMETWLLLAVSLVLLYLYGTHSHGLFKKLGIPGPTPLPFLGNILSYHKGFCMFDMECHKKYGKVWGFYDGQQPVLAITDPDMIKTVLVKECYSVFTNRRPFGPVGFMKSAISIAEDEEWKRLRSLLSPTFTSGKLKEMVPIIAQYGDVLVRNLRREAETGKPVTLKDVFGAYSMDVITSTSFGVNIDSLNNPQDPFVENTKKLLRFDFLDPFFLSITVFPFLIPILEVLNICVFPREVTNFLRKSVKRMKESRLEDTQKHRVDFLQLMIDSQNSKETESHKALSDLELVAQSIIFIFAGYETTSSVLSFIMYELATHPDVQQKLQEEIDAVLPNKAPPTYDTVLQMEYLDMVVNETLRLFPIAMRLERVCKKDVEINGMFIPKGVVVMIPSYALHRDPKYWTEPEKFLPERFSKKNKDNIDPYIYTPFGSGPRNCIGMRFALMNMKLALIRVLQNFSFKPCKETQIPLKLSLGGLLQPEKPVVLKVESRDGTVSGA

[1] = Liver microsomal metabolic stability, human; type: in vitro ADME; conditions: human liver microsomes 0.5 mg protein/mL, 1 μM, 37 °C
Procedure: (§2) Liver microsome samples (0.5 mg protein/mL) from mouse, rat, and human (Corning, Glendale, AZ, USA) in PBS and the test compound (final concentration 1 μM) were mixed. Following the addition of the NADPH regenerating solution (Corning), the samples were incubated at 37 °C for 30 min. The reaction was stopped by the addition of ice-cold acetonitrile, and the samples were centrifuged at 4000 rpm for 15 min.

SARS-CoV-2 = experiment: microbe, parasite or virus in culture; type: cell-based; conditions: Severe acute respiratory syndrome coronavirus 2, Vero, 24 h; read-out: IC50, SARS-CoV-2 inhibition
CYP2D6 = CYP2D6 (Homo sapiens, UniProt P10635); experiment: CYP450 enzyme inhibition, CYP2D6
Chain of CYP2D6 (P10635 whole entry): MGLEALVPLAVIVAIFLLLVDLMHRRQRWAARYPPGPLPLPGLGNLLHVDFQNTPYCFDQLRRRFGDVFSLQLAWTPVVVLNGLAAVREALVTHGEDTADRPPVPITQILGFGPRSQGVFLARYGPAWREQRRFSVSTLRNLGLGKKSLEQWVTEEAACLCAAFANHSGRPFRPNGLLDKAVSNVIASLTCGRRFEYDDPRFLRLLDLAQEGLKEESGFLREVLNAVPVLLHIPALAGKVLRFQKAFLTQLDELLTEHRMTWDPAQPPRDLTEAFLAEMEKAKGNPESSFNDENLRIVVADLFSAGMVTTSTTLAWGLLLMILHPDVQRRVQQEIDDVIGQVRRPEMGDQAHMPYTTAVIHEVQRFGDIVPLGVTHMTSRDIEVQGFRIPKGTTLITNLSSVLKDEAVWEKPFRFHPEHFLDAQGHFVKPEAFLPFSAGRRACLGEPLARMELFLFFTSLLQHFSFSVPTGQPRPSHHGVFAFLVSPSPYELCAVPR

[2] = Liver microsomal metabolic stability, rat; type: in vitro ADME; conditions: rat liver microsomes 0.5 mg protein/mL, 1 μM, 37 °C
Procedure: as §2

SARS-CoV-2 Mpro = SARS-CoV-2 Mpro (Severe acute respiratory syndrome coronavirus 2, UniProt P0DTD1); experiment: SARS-CoV-2 Mpro activity assay (assay kit, fluorescence); type: biochemical
Procedure: SARS-CoV-2 Mpro activity was measured using the SARS-CoV-2 Mpro assay kit (BPS Bioscience, San Diego, CA, USA) according to the manufacturer’s instructions. The samples were evaluated in duplicated, serially diluted concentrations. The fluorescence intensity of low binding, black, 96-well microtiter plates was detected at an excitation wavelength of 360 nm and an emission wavelength of 460 nm using a microplate spectrophotometer (Bio-Tek, Winooski, VT, USA).

in vitro = conditions: African green monkey
CYP2C19 = CYP2C19 (Homo sapiens, UniProt P33261); experiment: CYP450 enzyme inhibition, CYP2C19
Chain of CYP2C19 (P33261 whole entry): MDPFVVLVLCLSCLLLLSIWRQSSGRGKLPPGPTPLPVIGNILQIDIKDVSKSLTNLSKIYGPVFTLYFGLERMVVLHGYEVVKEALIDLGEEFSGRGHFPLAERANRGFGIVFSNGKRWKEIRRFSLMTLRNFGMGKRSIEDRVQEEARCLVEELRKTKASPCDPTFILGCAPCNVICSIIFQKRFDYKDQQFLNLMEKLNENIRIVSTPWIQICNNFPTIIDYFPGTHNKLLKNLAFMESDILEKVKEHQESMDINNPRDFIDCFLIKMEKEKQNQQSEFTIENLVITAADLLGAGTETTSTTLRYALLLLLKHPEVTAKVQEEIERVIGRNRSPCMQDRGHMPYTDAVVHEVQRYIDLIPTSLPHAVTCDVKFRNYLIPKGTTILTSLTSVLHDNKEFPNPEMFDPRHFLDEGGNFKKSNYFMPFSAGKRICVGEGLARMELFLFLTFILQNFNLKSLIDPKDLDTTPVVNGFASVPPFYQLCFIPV

[3] = system: NA of H5N1 influenza virus; conditions: cited from earlier work
Plasma stability, human = type: in vitro ADME; conditions: 37 °C, read-out: Plasma Stability (% Remaining), Hum
Procedure: as §1

[4] = Liver microsomal metabolic stability, mouse; type: in vitro ADME; conditions: mouse liver microsomes 0.5 mg protein/mL, 1 μM, 37 °C
Procedure: as §2

hERG K+ channel = hERG K+ channel (Homo sapiens, UniProt Q12809); experiment: hERG K+ channel automated planar patch clamp assay
Chain of hERG K+ channel (Q12809 whole entry): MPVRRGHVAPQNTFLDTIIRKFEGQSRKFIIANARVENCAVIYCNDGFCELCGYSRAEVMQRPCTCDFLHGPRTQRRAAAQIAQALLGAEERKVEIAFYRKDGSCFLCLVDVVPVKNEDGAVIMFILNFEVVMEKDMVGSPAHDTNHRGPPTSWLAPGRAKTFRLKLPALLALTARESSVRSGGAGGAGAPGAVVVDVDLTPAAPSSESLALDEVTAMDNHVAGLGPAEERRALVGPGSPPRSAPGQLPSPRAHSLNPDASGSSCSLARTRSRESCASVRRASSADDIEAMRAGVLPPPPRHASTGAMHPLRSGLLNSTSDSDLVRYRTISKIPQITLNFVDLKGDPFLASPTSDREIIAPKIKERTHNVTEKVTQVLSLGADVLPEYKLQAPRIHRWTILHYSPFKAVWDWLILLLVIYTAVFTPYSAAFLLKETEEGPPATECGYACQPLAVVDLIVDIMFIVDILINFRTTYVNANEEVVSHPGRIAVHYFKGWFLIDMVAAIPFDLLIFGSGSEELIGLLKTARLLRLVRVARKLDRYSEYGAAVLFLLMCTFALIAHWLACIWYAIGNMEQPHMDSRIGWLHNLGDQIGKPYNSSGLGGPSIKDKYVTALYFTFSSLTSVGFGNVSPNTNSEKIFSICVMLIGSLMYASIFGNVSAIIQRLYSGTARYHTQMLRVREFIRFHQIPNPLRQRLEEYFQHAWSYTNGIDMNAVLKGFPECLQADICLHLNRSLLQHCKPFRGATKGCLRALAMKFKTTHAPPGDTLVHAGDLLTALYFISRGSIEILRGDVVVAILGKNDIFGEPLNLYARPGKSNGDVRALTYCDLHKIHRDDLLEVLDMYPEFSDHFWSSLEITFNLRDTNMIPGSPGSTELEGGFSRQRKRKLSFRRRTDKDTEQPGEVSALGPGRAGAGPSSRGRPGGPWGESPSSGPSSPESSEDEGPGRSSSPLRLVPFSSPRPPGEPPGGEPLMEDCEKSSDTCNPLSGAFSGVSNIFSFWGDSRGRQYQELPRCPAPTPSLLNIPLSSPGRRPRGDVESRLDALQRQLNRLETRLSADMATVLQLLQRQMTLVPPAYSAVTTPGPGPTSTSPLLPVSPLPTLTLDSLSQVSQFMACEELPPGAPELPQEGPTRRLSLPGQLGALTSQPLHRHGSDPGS

[5] = Pharmacokinetic study in mice; type: in vivo; conditions: for Cmax / Tmax: n = 3
Procedure: Seven-week-old male ICR mice were purchased from Nara Bio Co., Ltd. (Pyungtaek, Korea) and housed under 24 °C, 50% humidity, and 12 h day/night cycle conditions with access to standard chow and drinking water. Mice were acclimated for 1 week before the experiments. All animal procedures were approved by the KRICT Animal Care and Use Committee (ACUC approval number, DDP-7221). A total of 10 mg/kg of compound in a 5:40:55 ratio of DMSO:PEG400:DW was intraperitoneally or orally administered (n = 3). Blood samples were collected at 0.083–24 h after drug administration through the retro-orbital venous plexus and the plasma fraction was separated by centrifugation (15,000 rpm, 3 min). […] Mean plasma concentration–time data were calculated using noncompartmental methods (Phoenix WinNonlin software version 6.4; Pharsight Corporation, Mountain View, CA, USA).

CYP1A2 = molecular target: T1, CYP1A2 (Homo sapiens, UniProt P05177); experiment: CYP450 enzyme inhibition, CYP1A2
T1 sequence (P05177 1-516): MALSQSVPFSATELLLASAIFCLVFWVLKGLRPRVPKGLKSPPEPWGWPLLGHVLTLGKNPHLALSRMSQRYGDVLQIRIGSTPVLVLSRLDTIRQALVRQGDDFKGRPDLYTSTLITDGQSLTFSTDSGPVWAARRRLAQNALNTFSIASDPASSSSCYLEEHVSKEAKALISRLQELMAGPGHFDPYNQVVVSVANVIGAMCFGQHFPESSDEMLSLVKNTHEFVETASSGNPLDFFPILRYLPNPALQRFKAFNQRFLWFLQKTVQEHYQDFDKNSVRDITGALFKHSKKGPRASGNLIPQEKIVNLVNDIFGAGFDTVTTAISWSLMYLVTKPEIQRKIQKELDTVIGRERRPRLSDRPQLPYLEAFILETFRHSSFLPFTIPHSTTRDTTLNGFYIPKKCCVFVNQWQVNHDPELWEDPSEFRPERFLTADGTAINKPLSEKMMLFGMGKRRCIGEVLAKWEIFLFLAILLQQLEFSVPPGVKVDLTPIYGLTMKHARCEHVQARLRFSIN

C57BL/6 mice = experiment: Five-day repeated-dose toxicity study; conditions: male and female mice; for clinical signs and animal death: IP 10 mg/kg, observed for 6 days; for approximately lethal dose: IP 10 mg/kg/day for 5 days
[6] = male, ICR, mouse, plasma, IP 10 mg/kg
[7] = male, ICR, mouse, plasma, PO 10 mg/kg

Chain of CYP2C9 (P11712 whole entry): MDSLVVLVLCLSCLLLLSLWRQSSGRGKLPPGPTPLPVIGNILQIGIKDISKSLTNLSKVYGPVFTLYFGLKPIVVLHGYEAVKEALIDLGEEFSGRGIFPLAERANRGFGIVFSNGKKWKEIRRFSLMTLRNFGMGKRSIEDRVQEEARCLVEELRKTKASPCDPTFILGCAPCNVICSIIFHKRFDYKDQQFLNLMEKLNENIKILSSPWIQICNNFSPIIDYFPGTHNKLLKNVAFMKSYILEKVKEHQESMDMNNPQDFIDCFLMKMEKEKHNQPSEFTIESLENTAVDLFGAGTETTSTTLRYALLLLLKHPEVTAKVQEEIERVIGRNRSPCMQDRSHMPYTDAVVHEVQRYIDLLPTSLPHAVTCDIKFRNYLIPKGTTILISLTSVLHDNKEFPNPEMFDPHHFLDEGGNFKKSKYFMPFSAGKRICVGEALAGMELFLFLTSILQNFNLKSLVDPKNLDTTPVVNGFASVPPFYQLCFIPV

CCCC(=O)c1c(O)c(CC2=C(O)C(C)(C)C(O)=C(C(C)=O)C2=O)c(O)c(Cc2c(O)c(CC3=C(O)C(C)(C)C(O)=C(C(C)=O)C3=O)c(O)c(C(=O)CCC)c2O)c1O [dryocrassin ABBA, Dryocrassin ABBA]
IC50 (CYP2C9): 0.4 µM
IC50 (influenza virus): 16.5 µM
remaining at 4 h, 5 μM (Plasma stability, rat): 67 ± 7.29%
IC50 (MERS-CoV): 1.31 ± 0.07 µM
IC50 (SARS-CoV): 0.8 ± 0.07 µM
IC50 (CYP3A4): 8.33 µM
MS (%) (Remaining after 30 min), Hum [1]: >99%
IC50 (SARS-CoV-2): 22.4 ± 0.73 µM
IC50 (CYP2D6): 13.5 µM
MS (%) (Remaining after 30 min), Rat [2]: >99%
IC50 (SARS-CoV-2 Mpro): 46.5 ± 1.1 µM
CC50 (in vitro): > 50 µM
IC50 (CYP2C19): 16.1 µM
IC50 [3]: 18.6 ± 4.53 µM
remaining at 4 h, 5 μM (Plasma stability, human): 29.7 ± 8.37%
MS (%) (Remaining after 30 min), Mice [4]: 68.3 ± 2.1%
inhibition at 10 µM (hERG K+ channel): 7.27%
AUC ([5]; IP 10 mg/kg, n = 3, 10 mg/kg): 65960 ± 8630 ng·h/mL
Cmax [5, 6]: 12800 ± 1790 ng/mL
Tmax [5, 6]: 1.17 ± 0.76 h
half-life ([5]; male, ICR, mouse, plasma, IP 10 mg/kg, n = 3, read-out: T1/2 (converted)): 5.5 ± 0.56 h
Cmax [5, 7]: 3640 ± 570 ng/mL
Tmax [5, 7]: 0.67 ± 0.29 h
half-life ([5]; male, ICR, mouse, plasma, PO 10 mg/kg, n = 3, read-out: T1/2 (converted)): 12.6 ± 3.76 h
AUC ([5]; male, ICR, mouse, plasma, ip, 10 mg/kg, IP 10 mg/kg, n = 3, read-out: AUC): 65000 ng·h/mL
AUC ([5]; male, ICR, mouse, plasma, other: intraperitoneal and oral (range over both arms), 10 mg/kg, in vivo, span over IP and PO 10 mg/kg (abstract), read-out: plasma exposure (AUC)): 19300 to 65000 ng·h/mL
half-life ([5]; male, ICR, mouse, plasma, other: intraperitoneal and oral (range over both arms), in vivo, span over IP and PO 10 mg/kg (abstract), read-out: half-life): 5.5 to 12.6 h
AUC ([5]; male, ICR, mouse, plasma, po, 10 mg/kg, PO 10 mg/kg, n = 3, read-out: AUC): 19300 ± 1420 ng·h/mL
IC50 (CYP1A2): 14.7 µM
clinical signs and animal death (C57BL/6 mice): No abnormal clinical signs and animal death
approximately lethal dose (C57BL/6 mice): > 10 mg/kg

CCCC(=O)c1c(O)c(CC2=C(O)C(C)(C)C(O)=C(C(C)=O)C2=O)c(O)c(CC2=C(O)C(C)(C)C(O)=C(C(C)=O)C2=O)c1O [filixic acid ABA]
IC50 (MERS-CoV): 2.68 ± 0.1 µM
IC50 (SARS-CoV): 4.56 ± 0.21 µM
IC50 (SARS-CoV-2): 25.9 ± 0.81 µM
IC50 (SARS-CoV-2 Mpro; serially diluted compounds 3.125–100 μM, mean ± SEM, read-out: IC50, SARS-CoV-2 Mpro (3CL) activity): 39.6 ± 1.09 µM
CC50 (in vitro): > 50 µM
IC50 [3]: 29.6 ± 2.48 µM
clinical signs and animal death (C57BL/6 mice): No abnormal clinical signs and animal death
approximately lethal dose (C57BL/6 mice): > 10 mg/kg
